Reference: patent US11497787B2, “Functionalized poly-ADP-ribose polymers for drug delivery” (University of Southern California, priority 2019, dated 2022)
Like-named read-outs stand apart in the source and are kept apart here.

Tests used:
wild type PARP1 = wild type PARP1 (Homo sapiens, UniProt P09874); experiment: Automodification and click-chemistry based immunoblot activity analysis
Protocol: Automodification and Immunoblotting Activity Analysis. […] 20 μL of the reaction was taken out and saved for SDS-PAGE analysis. The remaining reaction mixtures were further labeled with azide-biotin (for 1-4) or phosphine-PEG3-Biotin (for 5 and 6) through copper(I)-catalyzed azide alkyne cycloaddition (CuAAC) and Staudinger reaction. The CuAAC reactions were performed for one hours at room temperature in 40 μL volume, which contain 30 μL PARP1 automodification mixtures, 2 mM THPTA, 1 mM CuSO4, 100 μM azide-biotin, and 10 mM sodium ascorbate in PBS. […] The levels of auto-PARylation were evaluated by immunoblots using a streptavidin-HRP conjugate for detection of the biotinylated PARP1 via click chemistry and Staudinger reaction.

[1] = target: T1, purified human full-length PARP1 (Homo sapiens, UniProt P09874); details: literature value; read-out: Km with PARP1, previously reported value; cited from earlier work
T1 construct: His6 (C); made in house; host or cells: E. coli BL21 (DE3), pET-28a(+)

[2] = target: T1, purified human full-length PARP1; experiment: HPLC-based kinetic assay, NADase activity; assay type: biochemical; details: hydrolysis catalyzed by PARP1, 30° C.
Protocol: (§1) High-performance Liquid Chromatography (HPLC)-based Kinetic Assays. Auto-PARylation of PARP1 was carried out in 80 μL assay solutions (30 mM HEPES, pH 8.0, 5 mM MgCl2, 5 mM CaCl2, 1 mM DTT, 100 ng/μL of activated DNA, 100 ng/μL BSA) containing varied concentrations of NAD^+ (50, 100, 250, 450, 600, and 750 μM) or NAD^+ analogues (2, 6; see Table 1) at 30° C. with purified PARP1 enzymes. The reactions were quenched at different time points (NAD^+: 0, 2.5, 5, 10, 15, and 20 min; 2: 0, 60, 120, 180, 240, and 300 min; 6: 0, 5, 10, 15, 20 and 30 min) using 20% ice-cold TCA. After centrifugation, the reaction mixtures were analyzed by reverse phase HPLC using a semipreparative C18 Kinetex column (5 μm, 100 Å, 150×10.0 mm, from Phenomenex Inc, Torrance, Calif.) (mobile phase A: 0.1% formic acid (aq); mobile phase B: 0.1% formic acid in acetonitrile; flow rate=2.0 ml/min; 0-8 min: 0% B, 8-12 min: 0-50% B, 12-13 min: 50-2.5% B, 13-18 min: 2.5-40% B, 18-20 min: 40-0% B) with detection of UV absorbance at 260 nm. […] NADase reaction rates were determined based on the increase in peak areas of the assigned peaks of ADPr and ADPr analogues, while reaction rates for PARP activities were measured based on the decrease in peak areas of the assigned peaks of NAD^+ and NAD^+ analogues excluding NADase activity. […]

[3] = target: T1, purified human full-length PARP1; experiment: HPLC-based kinetic assay, PARP activity (auto-PARylation); assay type: biochemical; details: substrate of PARP1, 30° C.
Protocol: as §1

T1 sequence (P09874 whole entry): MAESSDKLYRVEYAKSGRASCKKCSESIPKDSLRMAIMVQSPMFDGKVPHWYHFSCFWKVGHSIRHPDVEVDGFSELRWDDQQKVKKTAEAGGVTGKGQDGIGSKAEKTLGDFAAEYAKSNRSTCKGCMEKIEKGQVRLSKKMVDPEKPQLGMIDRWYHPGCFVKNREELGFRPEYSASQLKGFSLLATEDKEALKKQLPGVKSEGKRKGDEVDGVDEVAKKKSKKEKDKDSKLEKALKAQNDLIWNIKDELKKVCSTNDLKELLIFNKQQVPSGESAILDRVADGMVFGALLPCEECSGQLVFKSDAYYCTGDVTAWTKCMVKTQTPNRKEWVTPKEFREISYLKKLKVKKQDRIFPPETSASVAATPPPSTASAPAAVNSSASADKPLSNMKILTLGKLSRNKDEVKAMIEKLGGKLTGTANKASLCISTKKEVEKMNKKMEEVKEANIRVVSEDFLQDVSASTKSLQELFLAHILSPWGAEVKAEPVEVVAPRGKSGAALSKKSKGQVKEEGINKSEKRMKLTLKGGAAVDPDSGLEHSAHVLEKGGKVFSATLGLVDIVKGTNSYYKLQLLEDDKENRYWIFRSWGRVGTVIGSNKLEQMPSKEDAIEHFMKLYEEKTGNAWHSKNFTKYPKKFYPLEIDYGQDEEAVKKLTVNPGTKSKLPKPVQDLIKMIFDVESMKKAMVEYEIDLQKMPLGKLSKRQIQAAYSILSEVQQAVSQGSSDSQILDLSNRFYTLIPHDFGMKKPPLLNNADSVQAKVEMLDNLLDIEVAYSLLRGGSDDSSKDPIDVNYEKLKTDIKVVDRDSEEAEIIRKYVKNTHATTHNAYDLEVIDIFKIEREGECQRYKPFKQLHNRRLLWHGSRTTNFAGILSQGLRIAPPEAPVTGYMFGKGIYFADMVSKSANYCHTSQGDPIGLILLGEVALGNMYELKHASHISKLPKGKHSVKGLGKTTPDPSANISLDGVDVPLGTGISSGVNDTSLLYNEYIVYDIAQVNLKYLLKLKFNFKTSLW
Sequence of wild type PARP1 (P09874 whole entry): as above

Row | suppression of PARP1 catalytic activity / automodification signal (wild type PARP1; automodification with NAD2 and NAD6, versus no-inhibitor controls) | PARP1 automodification signal (substrate use), biotinylation-based immunoblot (wild type PARP1; 250 μM NAD^+ or analogue, 5 μM PARP1, 30° C., 2 hours) | Km [2] [µM] | kcat, NADase activity [2] [s⁻¹] | Km [3] [µM] | kcat, PARP activity [3] [s⁻¹] | Structure (SMILES) | Km [1] [µM]
1 | potently suppressed | – | – | – | – | – | C[C@]1(c2nc3c(C(N)=O)cccc3[nH]2)CCCN1 [veliparib] | –
2 | – | no automodification signals | 472 ± 187 | 0.0065 ± 0.0013 | 145 ± 36 | 0.0783 ± 0.0067 | NC(=O)c1ccc[n+]([C@@H]2O[C@H](COP(=O)([O-])OP(=O)(O)OC[C@H]3O[C@@H](n4cnc5c(N)ncnc54)[C@H](O)[C@@H]3O)[C@@H](O)[C@H]2O)c1 [NAD^+, nicotinamide adenine dinucleotide] | 97 ± 7
